The values that follow are results of earlier work, collected in patent US20250333423A1, “SMALL MOLECULE MODULATORS OF GP130 SIGNALING PATHWAYS” (CarthroniX, Inc., priority 2022, published 2025).

The target of one data set is T1, gp130 (Homo sapiens, UniProt P40189).
T1 sequence (P40189 23-918): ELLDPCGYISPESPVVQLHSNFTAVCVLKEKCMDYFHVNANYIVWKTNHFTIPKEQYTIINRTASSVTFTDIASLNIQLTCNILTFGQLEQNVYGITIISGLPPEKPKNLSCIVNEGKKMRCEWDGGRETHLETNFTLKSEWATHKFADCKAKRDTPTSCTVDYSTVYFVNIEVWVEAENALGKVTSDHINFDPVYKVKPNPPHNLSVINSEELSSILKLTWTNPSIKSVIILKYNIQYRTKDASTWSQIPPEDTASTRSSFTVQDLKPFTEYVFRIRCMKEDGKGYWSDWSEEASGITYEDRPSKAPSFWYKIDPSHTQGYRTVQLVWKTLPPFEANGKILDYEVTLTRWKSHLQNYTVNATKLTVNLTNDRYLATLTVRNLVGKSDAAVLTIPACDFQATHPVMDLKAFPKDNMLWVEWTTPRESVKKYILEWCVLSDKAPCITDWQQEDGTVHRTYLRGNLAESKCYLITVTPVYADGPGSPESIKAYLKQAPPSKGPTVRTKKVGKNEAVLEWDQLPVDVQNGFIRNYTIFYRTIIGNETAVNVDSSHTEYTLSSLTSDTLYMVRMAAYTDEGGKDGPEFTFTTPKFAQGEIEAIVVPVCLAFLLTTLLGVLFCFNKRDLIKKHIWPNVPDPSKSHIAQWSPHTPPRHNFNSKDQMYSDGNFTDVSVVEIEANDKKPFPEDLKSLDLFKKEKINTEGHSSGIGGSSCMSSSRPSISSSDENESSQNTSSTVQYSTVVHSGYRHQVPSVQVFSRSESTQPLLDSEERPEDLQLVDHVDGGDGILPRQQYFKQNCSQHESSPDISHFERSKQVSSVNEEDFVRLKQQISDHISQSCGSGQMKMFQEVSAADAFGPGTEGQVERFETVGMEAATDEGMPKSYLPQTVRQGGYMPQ

SMILES strings stand for the structures.

As to `Brc1ccc(Nc2nc(-c3ccccc3)cs2)cc1` [RCGD 423], the “prevention of cartilage degeneration” value in the data set with rat model of OA is reported as “remarkable ability to prevent cartilage degeneration”. Besides, the “interaction with gp130” value at gp130 (in vitro) is “interacts with the extracellular region of gp130”. Also, the “formation of gp130 homodimers” value at gp130 (ligand-independent) is listed as “promotes the formation of active, ligand-independent gp130 homodimers”.
